We go through 13 compounds from US20240109880A1 (Insilico Medicine IP Limited, priority 2021, published 2024).

Converted amounts (≈) assume the structure as drawn.

A short description of series [1]: Permeability in Caco-2 Assay. The class given is in vitro ADME. To be noted: human, pH 7.4, 2 hours; for efflux ratio at 2 h, 2 μM: Caco-2, 2.00 μM bi-directionally; for Papp A→B at 2 h, 2 μM: Caco-2, 2.00 μM, pH 7.40. Here is the method: (§1) Permeability of test compounds was determined in Caco-2 Assay. Caco-2 cells purchased from ATCC were seeded onto […] (PET) in 96-well Corning Insert plates at 1×10^5 cells/cm2, and refreshed medium every 4-5 days until to the 21st to 28th day for confluent cell monolayer formation. The transport buffer in the study was HBSS with 10.0 mM HEPES at pH 7.40±0.05. Test compound was tested at 2.00 μM bi-directionally in duplicate. Digoxin was tested at 10.0 μM bi-directionally in duplicate, while nadolol and metoprolol were tested at 2.00 μM in A to B direction in duplicate. Final DMSO concentration was adjusted to less than 1%. The plate was incubated for 2 hours in CO2 incubator at 37±1° C., with 5% CO2 at saturated humidity without shaking. And all samples after mixed with acetonitrile containing internal standard were centrifuged at 3200×g for 10 min. For nadolol and metoprolol, 200 μL supernatant solution was diluted with 600 μL ultra-pure water for LC-MS/MS analysis. For digoxin and test compounds, 200 μL supernatant solution was diluted with 200 μL ultra-pure water for LC-MS/MS analysis. Concentrations of test and control compounds in starting solution, donor solution, and receiver solution were quantified by LC-MS/MS methodologies, using peak area ratio of analyte/internal standard. After transport assay, lucifer yellow rejection assay was applied to determine the Caco-2 cell monolayer integrity.
(In general: Passage across Caco-2 layers is used to estimate intestinal permeability.)

Series [2] is described as follows: Kinetic solubility in 50 mM phosphate buffer (pH 7.4). The class given is physicochemical. To be noted: for solubility kinetic at 24 h: aqueous buffer, kinetic from dmso stock, 50 mM phosphate buffer pH 7.4, 24 hours at room temperature. Here is the method:
10 μL of 10 mM in DMSO of test and control compounds was added into lower chambers of whatman miniuniprep vials, respectively. 490 μL of 50 mM PB (pH 7.4) was added into lower chambers of the whatman miniuniprep vials, respectively. The solubility samples were vortexted for at least 2 minutes. The miniuniprep vials were shaken on a shaker for 24 hours at room temperature at the speed of 800 rpm and then centrifuged for 20 minutes (eg. 4000 rpm). The miniunipreps were compressed to prepare the filtrates for injection into HPLC system to calculate the concentration with standard curve.

In a further series the target is KAT6A (Homo sapiens (Human), UniProt Q92794). Put plainly: KAT6A Biochemical Assay (radiometric 384-well, [3H]-Ac-CoA, biotinylated H4(1-30) peptide). The following applies: 5 nM KAT6A enzyme solution (2×), 60 min reaction at room temperature. Here is the method: Inhibition of KAT6A enzymatic activity by test compounds was determined using a radiometric 384-well format assay. A 10-point serial dilution of the test compounds were conducted in DMSO and then a volume of 200 nL was transferred into 384-well assay plate by Echo (Labcyte). 10 μL of 2× enzyme solution (5 nM KAT6A (Active Motif) in assay buffer (50 mM Tris-HCl pH 8.0, 50 mM KCl, 0.1 mM EDTA, 5% glycerol, 1 mM DTT)) was dispensed into assay plate except for low control wells, in which 10 μL of assay buffer was transferred. The plate was incubated at room temperature for 15 min before addition of 10 μL of 2×[^3H]-acetyl coenzyme A (Ac-CoA) and substrate peptide mix solution (500 nM (KAT6A) [^3H]-Ac-CoA (PerkinElmer) and 800 nM (KAT6A) biotinylated H4(1-30) peptide (GL Biochem) in assay buffer) to each well to start reaction. The plate was incubated at room temperature for 60 min (KAT6A), and then the reaction was stopped by adding 10 μL of stop solution (cold Ac-CoA (Cayman) in 1× assay buffer). 25 μL of reaction in each well was transferred to Flashplate (PerkinElmer) and incubated for another 1 hour at room temperature. The plate was read on Microbeta and the inhibition percentage of each compound treated well was calculated based on the equation in h %=(Max−sample)/(Max−Min)*100 where Max is signal from high control wells with enzyme, and Min is signal from low control wells with assay buffer only. The in h % data were further fit in XL-Fit to obtain IC50 values using a 4-parameter logistic (4PL) sigmoidal curve model.

The next series relates to Caco-2 cells. Put plainly: Permeability in Caco-2 Assay. The class given is in vitro ADME. To be noted: comparison from Table 4 (vs compound 47 or vs PF-9363). The procedure:
as §1

KAT6A, sequence (Q92794 whole entry): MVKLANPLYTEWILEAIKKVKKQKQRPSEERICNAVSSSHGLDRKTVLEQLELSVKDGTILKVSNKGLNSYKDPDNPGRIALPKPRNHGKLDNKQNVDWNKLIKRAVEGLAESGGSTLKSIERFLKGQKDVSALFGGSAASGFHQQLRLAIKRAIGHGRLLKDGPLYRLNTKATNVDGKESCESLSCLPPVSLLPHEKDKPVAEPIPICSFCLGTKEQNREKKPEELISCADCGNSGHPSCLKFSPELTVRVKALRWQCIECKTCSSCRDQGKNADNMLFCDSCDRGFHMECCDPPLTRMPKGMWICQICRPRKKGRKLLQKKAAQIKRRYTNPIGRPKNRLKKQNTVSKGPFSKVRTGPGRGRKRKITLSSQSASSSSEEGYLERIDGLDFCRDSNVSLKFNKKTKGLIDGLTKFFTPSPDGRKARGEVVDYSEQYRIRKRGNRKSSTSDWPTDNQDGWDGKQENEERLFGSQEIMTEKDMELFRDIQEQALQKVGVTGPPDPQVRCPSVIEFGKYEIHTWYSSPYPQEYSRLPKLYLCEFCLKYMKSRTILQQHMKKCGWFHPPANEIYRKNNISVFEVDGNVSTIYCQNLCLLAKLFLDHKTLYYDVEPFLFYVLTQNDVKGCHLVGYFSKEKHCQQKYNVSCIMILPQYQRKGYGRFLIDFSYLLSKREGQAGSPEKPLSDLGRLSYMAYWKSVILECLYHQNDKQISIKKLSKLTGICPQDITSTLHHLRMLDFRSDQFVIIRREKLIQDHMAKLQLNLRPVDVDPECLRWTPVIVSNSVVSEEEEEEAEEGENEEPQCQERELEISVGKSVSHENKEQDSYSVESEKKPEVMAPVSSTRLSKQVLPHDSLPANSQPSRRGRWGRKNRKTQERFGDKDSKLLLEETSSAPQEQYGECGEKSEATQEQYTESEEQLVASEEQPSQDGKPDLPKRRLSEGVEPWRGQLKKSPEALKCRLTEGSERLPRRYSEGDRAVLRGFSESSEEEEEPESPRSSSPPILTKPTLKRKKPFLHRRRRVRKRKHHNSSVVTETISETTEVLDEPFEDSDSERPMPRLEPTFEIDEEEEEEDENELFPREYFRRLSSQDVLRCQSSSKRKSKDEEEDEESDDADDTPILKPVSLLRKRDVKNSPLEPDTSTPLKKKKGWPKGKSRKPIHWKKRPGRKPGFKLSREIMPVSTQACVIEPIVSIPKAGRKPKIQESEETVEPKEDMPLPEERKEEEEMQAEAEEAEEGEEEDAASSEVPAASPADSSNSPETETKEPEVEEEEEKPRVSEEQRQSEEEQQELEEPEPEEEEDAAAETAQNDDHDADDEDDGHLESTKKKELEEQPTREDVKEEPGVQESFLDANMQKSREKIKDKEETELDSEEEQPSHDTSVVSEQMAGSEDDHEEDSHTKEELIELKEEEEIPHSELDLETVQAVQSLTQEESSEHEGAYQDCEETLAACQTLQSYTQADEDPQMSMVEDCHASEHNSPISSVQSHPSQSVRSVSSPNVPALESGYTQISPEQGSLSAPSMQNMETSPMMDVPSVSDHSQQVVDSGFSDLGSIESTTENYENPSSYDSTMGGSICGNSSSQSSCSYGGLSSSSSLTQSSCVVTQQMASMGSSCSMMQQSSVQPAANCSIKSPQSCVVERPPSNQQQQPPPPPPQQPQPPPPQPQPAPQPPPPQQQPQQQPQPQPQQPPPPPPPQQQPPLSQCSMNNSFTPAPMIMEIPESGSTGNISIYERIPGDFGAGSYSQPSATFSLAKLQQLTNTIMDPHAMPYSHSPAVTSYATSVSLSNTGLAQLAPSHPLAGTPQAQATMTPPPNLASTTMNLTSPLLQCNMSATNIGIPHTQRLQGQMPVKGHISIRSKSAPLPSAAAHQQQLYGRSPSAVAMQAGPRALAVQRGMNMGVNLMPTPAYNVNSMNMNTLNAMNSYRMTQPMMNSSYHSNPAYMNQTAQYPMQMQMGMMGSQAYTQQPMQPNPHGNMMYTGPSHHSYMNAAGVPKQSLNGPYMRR

With `COc1cccc(OC)c1S(=O)(=O)Nc1noc2cc(Cn3cccn3)c3c(c12)OCCC3` [Compound 14, N-(5-((1H-pyrazol-1-yl)methyl)-3,4-dihydro-2H-chromeno [8,7-d]isoxazol-9-yl)-2,6-dimethoxybenzenesulfonamide], in series [1], the efflux ratio at 2 h, 2 μM was 59.6 and the Papp A→B at 2 h, 2 μM was 0.439 ×10⁻⁶ cm/s. In addition, the kinetic solubility at 24 h in series [2] is 16.1 µM (≈ 7.58 µg/mL). Moreover, the IC50 on KAT6A is below 10 nM.

On to `COc1cccc(OC)c1S(=O)(=O)Nc1noc2cc(Oc3ccccn3)c3c(c12)OCCC3` [Compound 24, 2,6-dimethoxy-N-(5-(pyridin-2-yloxy)-3,4-dihydro-2H-chromeno[8,7-d]isoxazol-9-yl)benzenesulfonamide], for which, in series [1], the efflux ratio at 2 h, 2 μM came out at 3.2 and the Papp A→B at 2 h, 2 μM came to 12.9 ×10⁻⁶ cm/s. In series [2], this compound gave a solubility (kinetic) at 24 h of 189 µM (≈ 91.4 µg/mL). This compound also came in with an IC50 against KAT6A below 10 nM.

In the case of `COc1cccc(OC)c1S(=O)(=O)Nc1noc2cc(Oc3nccs3)c3c(c12)OCCC3` [Compound 35, 2,6-dimethoxy-N-(5-(thiazol-2-yloxy)-3,4-dihydro-2H-chromeno[8,7-d]isoxazol-9-yl)benzenesulfonamide], the “permeability compared with a reference compound” value with Caco-2 cells is listed as “improved permeability”. This compound returned a Papp A→B at 2 h, 2 μM in series [1] of 8.59 ×10⁻⁶ cm/s. In series [2], this compound returned a kinetic solubility at 24 h of 165 µM (≈ 80.8 µg/mL). Besides, in series [2] (comparison from Table 3), the “kinetic solubility compared with the otherwise identical compound having X group as carbon” value is “improved kinetic solubility”. Further, the IC50 against KAT6A was below 10 nM.

As for `COc1cccc(OC)c1S(=O)(=O)Nc1noc2cc(Cc3ccccn3)c3c(c12)OCCC3` [Compound 46, 2,6-dimethoxy-N-(5-(pyridin-2-ylmethyl)-3,4-dihydro-2H-chromeno[8,7-d]isoxazol-9-yl)benzenesulfonamide], in series [1], the efflux ratio at 2 h, 2 μM is 15.3 and the Papp A→B at 2 h, 2 μM is 2.66 ×10⁻⁶ cm/s. In addition, the kinetic solubility at 24 h in series [2] came to 3.34 µM (≈ 1.61 µg/mL). On KAT6A, this compound registered an IC50 below 10 nM.

In the case of `COc1cccc(OC)c1S(=O)(=O)Nc1noc2cc(Cc3nccs3)c3c(c12)OCCC3` [Compound 47], in series [1], the efflux ratio at 2 h, 2 μM turned out to be 12.3 and the Papp A→B at 2 h, 2 μM was found to be 3.53 ×10⁻⁶ cm/s. The compound also showed a solubility (kinetic) at 24 h in series [2] of 12.1 µM (≈ 5.9 µg/mL). Besides, the IC50 against KAT6A is below 10 nM.

As to `COc1ccccc1S(=O)(=O)Nc1noc2cc(Oc3nccs3)cc(OC)c12` [Compound 60, 2-methoxy-N-(4-methoxy-6-(thiazol-2-yloxy)benzo[d]isoxazol-3-yl)benzenesulfonamide], in series [1], the efflux ratio at 2 h, 2 μM amounted to 1.33 and the apparent permeability from apical to basolateral (Papp A→B) at 2 h, 2 μM was 13.7 ×10⁻⁶ cm/s. The compound further showed an IC50 against KAT6A below 10 nM.

In the case of `COc1ccccc1S(=O)(=O)Nc1noc2cc(Oc3nccs3)c3c(c12)OCCC3` [Compound 61, 2-methoxy-N-(5-(thiazol-2-yloxy)-3,4-dihydro-2H-chromeno[8,7-d]isoxazol-9-yl)benzenesulfonamide], in series [1], the efflux ratio at 2 h, 2 μM is 1.76 and the Papp A→B at 2 h, 2 μM came to 9.38 ×10⁻⁶ cm/s. The IC50 against KAT6A is below 10 nM.

For `COc1cccc(OC)c1S(=O)(=O)Nc1noc2cc(Oc3nccs3)c3c(c12)OCCCC3` [Compound 62, 2,6-dimethoxy-N-(6-(thiazol-2-yloxy)-2,3,4,5,9,10-hexahydrooxepino[3′,2′:5,6]benzo[1,2-d]isoxazol-10-yl)benzenesulfonamide], in series [1], the efflux ratio at 2 h, 2 μM was determined as 3.16 and the Papp A→B at 2 h, 2 μM was 10.6 ×10⁻⁶ cm/s. The compound also displayed an IC50 against KAT6A below 10 nM.

For `COc1ccccc1S(=O)(=O)Nc1noc2cc(Oc3nccs3)c3c(c12)OCCCC3` [Compound 63], in series [1], the efflux ratio at 2 h, 2 μM came to 2.88 and the Papp A→B at 2 h, 2 μM is 6.48 ×10⁻⁶ cm/s. At KAT6A, this compound displayed an IC50 below 10 nM.

As to `COc1cc(C)nc(OC)c1S(=O)(=O)Nc1noc2cc(Oc3nccs3)c3c(c12)OCCCC3` [Compound 64], in series [1], the efflux ratio at 2 h, 2 μM came to 2.82 and the Papp A→B at 2 h, 2 μM is 9 ×10⁻⁶ cm/s. The compound further returned an IC50 on KAT6A below 10 nM.

Regarding `COc1cccc(OC)c1S(=O)(=O)Nc1noc2cc(Sc3nccs3)cc(OC)c12` [Compound 66, 2,6-dimethoxy-N-(4-methoxy-6-(thiazol-2-ylthio)benzo[d]isoxazol-3-yl)benzenesulfonamide], in series [1], the efflux ratio at 2 h, 2 μM was found to be 4.25 and the Papp A→B at 2 h, 2 μM came out at 6.83 ×10⁻⁶ cm/s. Also, the IC50 against KAT6A is below 10 nM.

For the compound `COc1ccccc1S(=O)(=O)Nc1noc2cc(Sc3nccs3)cc(OC)c12` [Compound 67, 2-methoxy-N-(4-methoxy-6-(thiazol-2-ylthio)benzo[d]isoxazol-3-yl)benzenesulfonamide], in series [1], the efflux ratio at 2 h, 2 μM came out at 1.4 and the Papp A→B at 2 h, 2 μM worked out at 10.9 ×10⁻⁶ cm/s. At KAT6A, the IC50 is 10 to 100 nM.

Regarding `COc1cc(C)nc(OC)c1S(=O)(=O)Nc1noc2cc(Sc3nccs3)cc(OC)c12` [Compound 68, 2,4-dimethoxy-N-(4-methoxy-6-(thiazol-2-ylthio)benzo[d]isoxazol-3-yl)-6-methylpyridine-3-sulfonamide], in series [1], the efflux ratio at 2 h, 2 μM is 9.74 and the Papp A→B at 2 h, 2 μM turned out to be 2.29 ×10⁻⁶ cm/s. In addition, at KAT6A, the IC50 lay within 10 to 100 nM.

By efflux ratio is commonly meant the permeability from basolateral to apical divided by that in the opposite direction, in the common usage. A word on the Papp A→B: it is how fast a substance crosses the layer from the apical side. A lower Papp A→B goes with poor permeation. The solubility (kinetic) is solubility judged after dilution from a stock solution rather than from solid. What is called IC50 is the concentration needed to halve the response being measured.
